Source: patent US11896591B2, “Compositions and methods for preparing and using mitochondrial uncouplers” (UNIVERSITY OF VIRGINIA PATENT FOUNDATION, priority 2017, dated 2024)
Entries after “also recorded” stand apart in the source; their conditions may differ.

Legend:
[1] = test system: whole cells; test: Oxygen consumption rate (OCR) in whole cells, Seahorse XF-24 Flux Analyzer; assay type: cell-based; details: for EC50: binned EC50 values, increase in oxygen consumption rate in whole cells
Method in brief: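 NMuLi, C2C12, L6 cells, isolated cardiomyocytes and human primary fibroblasts seeded at set densities and adhered 24 h. Compounds injected during Seahorse XF-24 runs; OCR increase measured in 2 min periods, 2-3 wells per condition over three plates (n=6-9), two-way ANOVA with Bonferroni posttest.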

[2] = test system: STAM mouse model of fatty liver disease; test: STAM mouse model of fatty liver disease (NALFD criteria: steatosis, inflammation, ballooning); assay type: in vivo
[3] = test system: Diet-induced Obesity Mouse Model; test: Diet Induced Obesity Mouse Study; assay type: in vivo, Male C57B/6J mice
Protocol: Male C57B/6J mice aged 3 months (n=6) are assigned to one of three treatment groups: normal chow diet (Chow), western diet (WD) or western diet containing compound 4c (WD+4c). Mice fed WD and WD 4c are individually housed and given 3 grams of fresh food daily. WD+4c contained a dose of 4c equivalent to 50 mg/kg/day. For all treatments pre-weighed food is placed in cages and food intake is calculated daily. Fat and lean mass are measured by EchoMRI. Fat and lean mass for mice given the high fat Western Diet or the Western Diet with the compound 4c was determined by Echo MRI and shown in FIG. 6.

[4] = patients consuming ˜300 mg/d, over several months, without changes in food intake; cited from earlier work

Row | EC50 [1] [µM] | Structure (SMILES) | further results
1 | < 5 | Fc1cccc(Nc2nc3nonc3nc2Nc2ccccc2F)c1 [Compound 4c, N^5-(2-fluorophenyl)-N^6-(3-fluorophenyl)-[1,2,5]oxadiazolo[3,4-b]pyrazine-5,6-diamine] | Oxygen consumption rate as a function of drug dose ([1]; compared with BAM15 or FCCP (FIG. 1, FIG. 2)): higher oxygen consumption rate than mitochondrial uncouplers, BAM15 or FCCP; also recorded: consistently high oxygen consumption rate than the mitochondrial uncoupler BAM15; Anti-inflammatory effects ([2]; STAM mouse model (FIG. 3)): anti-inflammatory effects; Combined NALFD score ([2]; based on the steatosis, inflammation and ballooning assays, vs BAM15): significantly lower NALFD score than BAM15; Glucose tolerance test ([3]; WD + 50 mg/kg/day compound 4c vs WD): significantly improved glucose tolerance; Lean mass ([3]; WD + 4c 50 mg/kg/day vs WD, EchoMRI): without losing lean mass; also recorded: substantially the same lean mass; Food intake ([3]; WD + 4c vs WD): without a significant change in food intake; Fat mass ([3]; Western Diet (WD) + 4c 50 mg/kg/day vs WD, EchoMRI): gain less fat mass; also recorded: gained significantly less fat mass
2 | > 20 | Cn1c(C(F)(F)F)nc2nc(Nc3ccccc3F)c(NCCC(F)(F)F)nc21 [Compound 13x, 1-Methyl-N^5-(2-fluorophenyl)-N^6-3,3,3-trifluoropropyl-2-(trifluoromethyl)-imidazo[4,5-b]pyrazine-5,6-diamine] | 
3 | 5 to 20 | Fc1ccccc1Nc1nc2nonc2nc1NC1CCCCC1 [Compound 7f, N^5-cyclohexyl-N^6-(2-fluorophenyl)-[1,2,5]oxadiazolo[3,4-b]pyrazine-5,6-diamine] | 
4 | 5 to 20 | Cn1c(C(F)(F)F)nc2nc(Nc3cc(F)cc(F)c3)c(Nc3cc(F)cc(F)c3)nc21 [Compound 13i, N^5,N^6-bis(3,5-difluorophenyl)-1-methyl-2-(trifluoromethyl)-imidazo[4,5-b]pyrazine-5,6-diamine] | 
5 | 5 to 20 | COC(=O)n1c(C(F)(F)F)nc2nc(Nc3cc(F)cc(F)c3)c(Nc3cc(F)cc(F)c3)nc21 [Compound 14c, Methyl 5,6-bis((3,5-difluorophenyl)amino)-2-(trifluoromethyl)-imidazo[4,5-b]pyrazine-1-carboxylate] | 
6 | 5 to 20 | Cn1c(C(F)(F)F)nc2nc(Nc3cc(C(F)(F)F)cc(C(F)(F)F)c3)c(Nc3cc(C(F)(F)F)cc(C(F)(F)F)c3)nc21 [Compound 13d, N^5,N^6-bis(3,5-bis(trifluoromethyl)phenyl)-1-methyl-2-(trifluoromethyl)-imidazo[4,5-b]pyrazine-5,6-diamine] | 

The remaining lines, values behind:

Row | Structure (SMILES) | EC50 [1] [µM] | further results
7 | O=[N+]([O-])c1ccc(O)c([N+](=O)[O-])c1 [DNP, 2,4-dinitrophenol] |  | Weight loss [4]: 1.5 pounds per week
8 | Cn1c(C(F)(F)F)nc2nc(Nc3ccccc3F)c(Nc3cc(C(F)(F)F)cc(C(F)(F)F)c3)nc21 [Compound 13q, 1-Methyl-N^5-(2-fluorophenyl)-N^6-(3,5-bis(trifluoromethyl)phenyl)-2-(trifluoromethyl)-imidazo[4,5-b]pyrazine-5,6-diamine] | > 20 | 
9 | Fc1ccccc1Nc1nc2nonc2nc1Nc1ccccc1C(F)(F)F [Compound 4u, N^5-(2-fluorophenyl)-N^6-(2-(trifluoromethyl)phenyl)-[1,2,5]oxadiazolo[3,4-b]pyrazine-5,6-diamine] | < 5 | 
10 | Fc1c(Nc2nc3nc(C(F)(F)F)[nH]c3nc2Nc2cccc(C(F)(F)F)c2F)cccc1C(F)(F)F [Compound 12e, N^5,N^6-bis(2-fluoro-3-(trifluoromethyl)phenyl)-2-(trifluoromethyl)-1H-imidazo[4,5-b]pyrazine-5,6-diamine] | 5 to 20 | 
11 | Fc1ccccc1Nc1nc2nonc2nc1Nc1ccccc1OC(F)(F)F [Compound 4q, N^5-(2-fluorophenyl)-N^6-(2-(trifluoromethoxy)phenyl)-[1,2,5]oxadiazolo[3,4-b]pyrazine-5,6-diamine] | < 5 | 
12 | FC(F)(F)c1cc(Nc2nc3nonc3nc2Nc2cc(C(F)(F)F)cc(C(F)(F)F)c2)cc(C(F)(F)F)c1 [Compound 3z, N^5,N^6-bis(3,5-bis(trifluoromethyl)phenyl)-[1,2,5]oxadiazolo[3,4-b]pyrazine-5,6-diamine] | > 20 | 
13 | Cn1c(C(F)(F)F)nc2nc(Nc3cccc(F)c3F)c(Nc3cccc(F)c3F)nc21 [Compound 13j, N^5,N^6-bis(2,3-difluorophenyl)-1-methyl-2-(trifluoromethyl)-imidazo[4,5-b]pyrazine-5,6-diamine] | > 20 | 
14 | Fc1ccccc1Nc1nc2nonc2nc1Nc1cc(C(F)(F)F)cc(C(F)(F)F)c1 [Compound 4aa, N^5-(3,5-bis(trifluoromethyl)phenyl)-N^6-(2-fluorophenyl)-[1,2,5]oxadiazolo[3,4-b]pyrazine-5,6-diamine] | < 5 | 
15 | O=C(Nc1ccc(Nc2nc3nonc3nc2Nc2ccccc2F)cc1)C(F)(F)F [Compound 4t, 2,2,2-Trifluoro-N-(4-((6-((2-fluorophenyl)amino)-[1,2,5]oxadiazolo[3,4-b]pyrazin-5-yl)amino)phenyl)acetamide] | < 5 | 
16 | Fc1cc(F)cc(Nc2nc3nc(C(F)(F)F)[nH]c3nc2Nc2cc(F)cc(F)c2)c1 [Compound 12i, N^5,N^6-bis(3,5-difluorophenyl)-2-(trifluoromethyl)-1H-imidazo[4,5-b]pyrazine-5,6-diamine] | 5 to 20 | 
17 | Fc1cc(Nc2nc3nc(C(F)(F)F)[nH]c3nc2Nc2ccc(OC(F)(F)F)c(F)c2)ccc1OC(F)(F)F [Compound 12f, N^5,N^6-bis(3-fluoro-4-(trifluoromethoxy)phenyl)-2-(trifluoromethyl)-1H-imidazo[4,5-b]pyrazine-5,6-diamine] | 5 to 20 | 
18 | Cn1c(C(F)(F)F)nc2nc(Nc3ccccc3F)c(Nc3ccccc3F)nc21 [Compound 13a, N^5,N^6-bis(2-fluorophenyl)-1-methyl-2-(trifluoromethyl)-imidazo[4,5-b]pyrazine-5,6-diamine] | > 20 | 
19 | COC(=O)c1ccc(Nc2nc3nonc3nc2Nc2ccc(C(=O)OC)cc2)cc1 [Compound 3t, Dimethyl 4,4′-([1,2,5]oxadiazolo[3,4-b]pyrazine-5,6-diylbis(azanediyl))dibenzoate] | < 5 | 
